These results are taken from patent US20250382261A1 (The Broad Institute, Inc., priority 2021, published 2025).

Series [1] in a line: in vitro. As to conditions: human.
Series [2] has as its system K. pneumoniae (ATCC 43816, expressing pGDP2:mcr-1). As to the kind of experiment: Checkerboard potentiation assay with novobiocin, mcr-1 strain. The class given is cell-based. As to conditions: mcr-1 expressing K. pneumoniae.
Description: The following bacterial strains were used within this study; A. baumannii (ATCC 17978), K. pneumoniae (ATCC 43816), K. pneumoniae (ATCC 43816, expressing pGDP2:mcr-1), P. aeruginosa (PA01). Bacterial growth was in cation-adjusted Mueller-Hinton broth (MHB) at 37° C., and inoculum was prepared according to CLSI protocol (CLSI 2015).
Checkerboard analyses were conducted with each drug serially diluted at eight concentrations to create an 8×8 matrix. At least two biological replicates were done for each combination, and the means were used for FIC calculation. The FIC for each drug was calculated by dividing the concentration of the drug in the presence of codrug in a combination for a well showing <10% growth by the MIC for that drug alone. The FIC index (FICI) is the sum of the two FICs, with an FIC index≤0.5 deemed synergistic.
Series [3] is described as follows: In vitro metabolic stability, rat. The format is in vitro ADME. Particulars: read-out: In vitro metabolic stability (t1/2, min), rat.
Series [4] addresses hERG channel (Homo sapiens, UniProt Q12809). Here is the method:
hERG channel assays. All assays were performed by Cyprotex Ltd. using an eCiphrCardio assay. CDI iCell® cardiomyocytes are plated onto fibronectin coated 48 well microelectrode array plates at a density of 50,000 cells per well in 5 μl iCell® plating medium. After 2 h, 300 μl of maintenance medium is added to each well. The plate is incubated for 2 days, and then the medium is completely changed to 500 μl of maintenance medium. The cells are incubated for an additional 3 days until a stable beating phenotype is achieved and the cells are ready for drug treatment. The medium is changed the day before dosing. […] The activity of cells in a 48-well microelectrode array is recorded prior to treatment (baseline) and at 1- and 48-hours post-treatment using the Axion Biosystems Maestro MEA system. The recording conditions are at 37° C. with 5% CO2 using the standard cardiac settings on the Axion Biosystems Maestro Axis software version 2.1. The results are analyzed with the Axion Biosystem software.

Series [5] relates to LPS from E. coli EH100. As to the kind of experiment: BODIPY-Cadaverine LPS displacement assay. The format is binding. As to conditions: BODIPY-cadaverine displacement from E. coli EH100 LPS. Here is the method:
BODIPY-Cadaverine LPS displacement assay. The BODIPY-cadaverine LPS displacement assay was performed as previously described (Wood et al. 2004. Combinatorial Chemistry & High Throughput Screening, 7: 239-49; Klobucar et al. 2021. ACS Chemical Biology, 16: 929-42). A solution of BODIPY-cadaverine (2.25 μM) and LPS from E. coli EH100 (5.25 μM) in Tris-HCl buffer (50 mM, pH 7.4) was prepared. 0.5 μL of compound and 49.5 μL of the Tris-HCl buffer with BODIPY-cadaverine and LPS solution were added to a Corning nonbinding surface black 384-well polystyrene plate. Fluorescence intensity was measured immediately with an excitation wavelength of 580 nm and an emission wavelength of 620 nm. EC50 values were calculated using a three-parameter logistic curve in GraphPad Prism 9.

Series [6] in a line: In vitro metabolic stability, mouse. The format is in vitro ADME. Particulars: read-out: In vitro metabolic stability (t1/2, min), mouse.
The test system of series [7] is HEK293 (ATCC CRL 1573) cells. As to the kind of experiment: HEK293 cytotoxicity assay (Cell Titer Glo). The format is cell-based. Particulars: human, 48 h. Here is the method: (§1) Cytotoxicity Assays. HEK293 (ATCC CRL 1573) cells were left to adhere for 18 h at 7.5×10^3 cells per well in DMEM containing 10% FBS and 2 mM L-glutamine. Compound was added directly into the well. After 48 h of treatment Promega Cell Titer Glo 2.0® was added, shaken for 10 min, and luminescence read (Biotek Neo). AC50 values were calculated using a four-parameter logistic curve in GraphPad Prism 9.
(§2) Focusing on only the analogs that retained synergistic activity with novobiocin (FICI≤0.5), half-maximal activity (AC50) values were calculated against HEK293 cells using a CellTiter-Glo® based assay to approximate cell viability. […] Specifically, the FICI value for both P35 and P36 was 0.094 against A. baumannii, while their AC50 values were 235 μg/mL and 200 μg/mL, respectively.
(ATP-based viability assays read luminescence as a measure of living cells.)

Series [8] is described as follows: HEK293 cytotoxicity assay (Cell Titer Glo). The class given is cell-based. As to conditions: human, HEK293T Cytotoxicity (IC50, μg/mL). Here is the method:
as §1, §2

Series [9] is described as follows: Plasma protein binding (equilibrium dialysis). The class given is in vitro ADME. Here is the method: Plasma protein binding. Protein binding of P35 in mouse/rat/dog/human plasma was determined using an equilibrium dialysis method. The fraction of compound unbound to proteins was calculated with LC-MS/MS. This assay was performed in duplicate by Cyprotex Ltd.

Series [10] can be described thus: In vitro metabolic stability, human. The class given is in vitro ADME. As to conditions: read-out: In vitro metabolic stability (t1/2, min), human.
Series [11] has as its system A. baumannii ATCC 17978. Put plainly: Systemic A. baumannii murine infection model. The class given is in vivo, mouse. Here is the method:
Mouse infection models. Animal experiments were conducted according to guidelines set by the Canadian Council on Animal Care using protocols approved by the Animal Review Ethics Board at McMaster University under Animal Use Protocol #20-12-43. Before infection, mice were relocated at random from a housing cage to treatment or control cages. No animals were excluded from analyses, and blinding was considered unnecessary. Seven- to nine-week-old female C57BL/6 mice (Charles River) were infected intraperitoneally with ˜2×10^6 CFU of A. baumannii ATCC 17978, with 5% porcine mucin (Sigma-Aldrich). Infections were allowed to establish for 2 h, and treatments were administered intraperitoneally. For the survival study, the clinical endpoint was determined using a five-point body condition score analyzing weight loss, decrease in body temperature, respiratory distress, hampered mobility and hunched posture. Experimental endpoint was defined as five days post-infection for mice not reaching clinical endpoint. For CFU/mL enumeration, animals were infected as described above and euthanized 6 h post-infection, and blood was collected into sterile 2 ml heparinized tubes (BD Scientific) serially diluted in PBS and plated onto solid LB. Plates were incubated overnight at 37° C., and colonies were quantified to determine bacterial load.
This was directly compared to the activity of P35 and P36 in this model (all administered at 10 mg/kg) in combination with novobiocin (50 mg/kg).
For this experiment the same A. baumannii infection model was used, however, endpoint was defined as 6 h post-infection, at which point blood was collected for CFU/mL enumeration (FIG. 2b).

In series [12] the test system is HepG2 cells. As to conditions: human, 72 h, 75 µM.
The nature of series [13]: Solubility at pH 7.4. The class given is physicochemical. Particulars: pH 7.4, aqueous buffer, thermodynamic from solid; read-out: Kinetic solubility (μM @ pH 7.4). Here is the method: Thermodynamic solubility. P35 in solution at pH 7.4 was incubated at ambient temperature overnight with stirring using a vial roller system. The saturation of the solution was determined using HPLC-UV. This assay was performed in duplicate by Cyprotex Ltd.

≈ marks a conversion by molar mass, not a printed value.

hERG channel, sequence (Q12809 whole entry): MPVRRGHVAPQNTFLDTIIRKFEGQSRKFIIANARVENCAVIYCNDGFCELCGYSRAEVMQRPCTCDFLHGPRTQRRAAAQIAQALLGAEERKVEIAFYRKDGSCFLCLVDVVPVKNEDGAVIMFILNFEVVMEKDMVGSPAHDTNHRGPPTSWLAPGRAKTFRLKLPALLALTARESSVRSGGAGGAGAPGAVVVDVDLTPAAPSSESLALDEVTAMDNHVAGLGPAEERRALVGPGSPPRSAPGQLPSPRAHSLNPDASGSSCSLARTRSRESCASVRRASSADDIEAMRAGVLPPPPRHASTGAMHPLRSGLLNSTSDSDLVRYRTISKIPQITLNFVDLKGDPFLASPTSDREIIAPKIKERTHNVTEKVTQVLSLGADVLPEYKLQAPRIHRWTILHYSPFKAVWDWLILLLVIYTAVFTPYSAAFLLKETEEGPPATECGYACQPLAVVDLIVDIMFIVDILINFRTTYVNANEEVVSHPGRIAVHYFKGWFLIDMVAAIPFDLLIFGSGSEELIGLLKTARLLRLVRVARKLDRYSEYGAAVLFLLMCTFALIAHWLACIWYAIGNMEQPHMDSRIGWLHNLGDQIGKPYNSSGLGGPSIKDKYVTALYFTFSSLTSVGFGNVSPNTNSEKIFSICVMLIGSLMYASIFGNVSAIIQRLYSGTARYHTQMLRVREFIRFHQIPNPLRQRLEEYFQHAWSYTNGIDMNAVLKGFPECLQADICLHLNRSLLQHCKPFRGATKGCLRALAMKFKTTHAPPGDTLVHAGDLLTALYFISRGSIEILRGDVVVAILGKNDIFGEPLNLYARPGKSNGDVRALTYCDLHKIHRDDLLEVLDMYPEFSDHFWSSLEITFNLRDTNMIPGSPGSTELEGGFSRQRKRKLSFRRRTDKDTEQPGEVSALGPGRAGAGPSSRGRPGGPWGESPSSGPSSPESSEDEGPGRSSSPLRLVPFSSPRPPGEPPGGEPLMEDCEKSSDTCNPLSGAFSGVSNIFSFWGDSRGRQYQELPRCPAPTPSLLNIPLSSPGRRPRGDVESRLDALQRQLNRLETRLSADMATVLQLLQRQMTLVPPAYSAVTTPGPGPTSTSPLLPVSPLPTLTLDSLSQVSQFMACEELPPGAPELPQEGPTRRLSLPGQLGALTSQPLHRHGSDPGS

As usually defined, the AC50 is the midpoint of the concentration-response curve, whichever way the signal moves. Broadly, the IC50 is the concentration that inhibits the measured activity by half. As usually defined, the fraction unbound is free concentration divided by total concentration. `N=C(N)c1ccc(OCCN(CCOc2ccc(C(=N)N)cc2)c2ccccc2)cc1` [Analog P35]: the AC50 at 72 h in series [1] (HepG2 viability / cell cycle arrest AC50) amounted to 14.5 µM; in series [1] (Nuclear Size AC50 (μM)), 94.5 µM; in series [1] (Phospholipidosis AC50 (μM)) it was 43.1 µM. In series [2], the “FICI with novobiocin against K. pneumoniae expressing mcr-1” value came out at 0.12. In addition, the half-life is 110 min in series [3], 91.6 min in [6] and more than 145 min in series [10]. Further, the “Effect on beating at 10 μM” value in [4] is “loss of all detectable beating”. Moreover, the “Direct hERG channel inhibition 1 h after exposure” value in series [4] (human, 1 h) was “Neither pentamidine nor P35 directly inhibited the hERG channel”. Also, the “LPS Displacement (EC50, μg/mL)” value in [5] was 87.21 µg/mL. In [7], the “HEK293T Cytotoxicity (IC50, μg/mL)” value was 235.4 µg/mL. The concentration for half-maximal inhibition (IC50) at 48 h in [8] was 235 µg/mL. Also, the fraction unbound in series [9] (dog plasma) was 0.126; in series [9] (human plasma) it was 0.13; in [9] (mouse plasma), 0.169; in series [9] (rat plasma), 0.077. Further, the “Reduction in blood CFU/mL in combination with novobiocin” value in [11] (10 mg/kg + 50 mg/kg novobiocin, 6 h post-infection) was 3.05 log10. The “Animals rescued in combination with novobiocin” value in series [11] (10 mg/kg analog + 50 mg/kg novobiocin i.p. 2 h post-infection, endpoint 5 days) was determined as 100%. Moreover, in [11] (alone, 6 h post-infection, compared to control-treated animals), the “Impact on blood CFU/mL, treatment alone” value is recorded as “no significant impact”. Moreover, the “Phospholipidosis MR, percentage in brackets” value in series [12] came to 104%. Moreover, the thermodynamic solubility in [13] stood at 182 µM (≈ 76.2 µg/mL).
